How the values were obtained:
C. neoformans [1] = test: Viability of C. neoformans (viable cells relative to EtOH control culture); format: cell-based, Cryptococcus neoformans; settings: 300 μM single dose; for fungicidal / fungistatic effect on C. neoformans: screening assay; for log reduction at 300 µM: Cryptococcus neoformans, relative to 0.1% EtOH control, read-out: decrease in viable cells (converted)
Experimental: (§1) Panel A, survey of the effects of several oxatetradecanoic acids on the growth of C. neoformans. A culture of C. neoformans was grown at 30° C. in SAB media to midlog phase (A600 ~0.5). A single dose of fatty acid was then added to subcultures (final concentration=300 μM). EtOH(0.1%) was used as a negative control. Amphotericin B (AmB) was added (final concentraton=55 μM) as a positive control. Aliquots were withdrawn from the subcultures 0, 0.5, 2, 4, 7, 21, and 24 h after these additions and then absorbance at 600 nm was measured. All assays were done in duplicate or triplicate. A representative test is shown. Panel B, survey of the effects of oxatetradecanoic acids, dioxatetradecanoic acids and oxatridecanoic acids on the viability of C. neoformans. Fatty acid analog was added to the cultures as in Panel A. Aliquots were withdrawn 0.5, 2, 4, 7 or 8, and 24 h later and plated on SAB-agar at various dilutions to determine the number of viable organisms/ml culture. All assays were done in duplicate. Data from a representative test are expressed as the ratio of viable cells in treated cultures relative to a control culture that received 0.1% EtOH. A positive control culture received a single dose of amphotericin B (55 μM); Panel C, dose-dependent reduction in the viability of C. neoformans after addition of 4-oxatetradecanoic acid (O4) to cultures during log-phase growth at 30° C. in SAB. A single dose of the analog was given at T=0 h in the amount indicated and aliquots of the culture were withdrawn at various times to determine the number of viable cells. All assays were done in triplicate. A representative test is shown.
(§2) Saccharomyces cerevisiae strain YM2061 (MATa ura3-52 his3Δ200 ade2-101 lys2-801 met LEU2::pRY181 can1; Flick and Johnston, Mol. Cell. Biol. 10, 4757-4769 (1990), Candida albicans strain B311 (obtained from the American Type Tissue Culture, Rockville, Md.), or Cryptococcus neoformans strain L210425 (a clinical isolate that is part of the permanent culture collection of the Mycology Laboratory, Barnes Hospital, St. Louis, Mo.) were grown overnight at 30 C. The S. cerevisiae strain was incubated in YPD medium (1% bacto-yeast extract, Gibco, Long Island, N.Y.), 2% bacto-peptone (Gibco), 2% dextrose). The C. albicans and C. neoformans strains were grown in Sabouraud's media (SAB; 2% (w/v) dextrose, 1% bacto-peptone). The following morning the cultures were diluted into fresh medium to the desired density at 600 nm (early log phase), and subsequently incubated in a rotary shaker at 30° C. until an A600 =0.5 (mid log phase) was achieved. The culture was then divided into 10 ml aliquots. A single 10 μl aliquot of a stock solution of fatty acid analog (prepared in various concentrations using absolute ethanol) was added to the culture so that the final concentration of the compound was 100-500 μM (T=0). Ten microliters of ethanol alone was added to one 10 ml culture which served as the negative control. Amphotericin B (AmB; in the form of Fungizone, Squibb) was added (final concentration=55 μM) to another culture which served as the positive control. At T=0 and 0.5-24 h after addition of fatty acid analog to the subcultures, an aliquot was removed for determining the density of the subculture at 600 nm. Cell viability was determined at each of these time points by (i) serially diluting the aliquot in 0.15M NaCl and counting cell number in a hemocytometer and (ii) plating 2-3 of the dilutions in triplicate onto plates of SAB/agar (C. albicans and C. neoformans) or YPD/agar (S. cerevisiae). These plates were subsequently incubated at 30° C. for 24-48 hr to allow for the growth of colonies. The data were expressed as the ratio of viable cells/ml in the fatty acid analog treated subculture to the number of viable cells/ml in the negative (ethanol) control culture.

[2] = test system: a variety of fungal species, including C. albicans; settings: Sabouraud dextrose agar; cited from earlier work
C. neoformans [3] = test: Growth of C. neoformans cultures (absorbance at 600 nm); format: cell-based, Cryptococcus neoformans; settings: single 300 μM dose, exponential phase, 30° C., SAB, up to 24 h
Experimental: as §1
as §2, with “Amphotericin B (AmB; in the form of Fungizone, Squibb) was added (final concentration=55 μM) to another culture which served as the positive control. At T=0 and 0.5-24 h after addition of fatty acid analog to the subcultures, an aliquot was removed for determining the density of the subculture at 600 nm.” left out, “These plates were subsequently incubated at 30° C. for 24-48 hr to allow for the growth of colonies.” left out, “culture. […]” for “culture.”

HIV-1 = settings: cited from earlier work
[4] = test system: S. cerevisiae N-myristoylproteins; test: Metabolic labeling of cellular N-myristoylproteins with tritiated fatty acids; format: cell-based; settings: tritiated analog, 1 h, 30° C.
Experimental: (§3) Cells were labeled for 1 h with fatty acids of equal specific activity. Total cellular proteins were reduced, denatured and subjected to SDS-PAGE. Gels were treated overnight with 1 N hydrocylamine (pH 10) at room temperature followed by EN^3 HANCE. Fluorography was performed at -80° C. The exposure time for all gels was identical (2 weeks) as was the total amount of cellular protein added to each lane (100 μg).
(§4) Analysis of the incorporation of exogenous fatty acids into cellular proteins--Cultures of S. cerevisiae YM2061, C. albicans B311, and C. neoformans L210425 were grown overnight at 30° C. in YPD or SAB broth. In the morning, C. albicans and C. neoformans were diluted to an A600 =0.6. All cultures were subsequently shaken at 30° C. until they achieved an A600 =1.2. A 5 ml aliquot of each culture was then incubated at 30° C. with 100 μCi/ml of either [9,10(n)^3 H]myristate (NEN Research Products, Dupont, Boston, Mass.); [6,7(n)^3 H]4-oxatetradecanoate; [9,10(n)^3 H]6-oxatetradecanoate;[9,10(n)^3 H]11-oxatetradecanoate; or [10,11(n)^3 H]13-oxatetradecanoate (the final specific activity of all tritiated fatty acids=30 Ci/mmol, their final concentration=3.3 μM). The cultures were then chilled on ice for 5 min and the cells harvested by centrifugation at 4000×g for 5 min. The pellet was washed by gentle vortexing in 1 ml of phosphate buffered saline (PBS, maintained at 4° C.). The yeast cells were then pelleted by centrifugation (as above) and broken open by vortexing with 500 μm glass beads in a 200 μl solution containing 240 mM Tris-HCl, pH 6.8, 2% SDS, 0.4% β-mercaptoethanol, 0.002% bromophenol blue, and 10% glycerol. The solution was then boiled for 5 min and cellular debris was removed by centrifugation at 12,000×g for 10 min. One hundred μg [Lowry et al., J. Biol. Chem. 193, 265-275 (1951)] of lysate protein from each sample was subjected to denaturation, reduction and electrophoresis through 12% polyacrylamide gels containing 0.1% SDS [Laemmli, Nature 227, 680-685 (1970)]. Duplicate gels were incubated overnight with 1M Tris, pH 7.4, or 1N hydroxylamine, pH 10. Fluorography was performed by treating gels with EN^3 HANCE (NEN Research Products, Dupont) and, following drying, exposing them to Kodak XAR film at -80° C.

[5] = target: T1, human myristoylCoA:protein N-myristoyltransferase (NMT) (Homo sapiens, UniProt P30419); settings: cited from earlier work
T1 sequence (P30419 1-496): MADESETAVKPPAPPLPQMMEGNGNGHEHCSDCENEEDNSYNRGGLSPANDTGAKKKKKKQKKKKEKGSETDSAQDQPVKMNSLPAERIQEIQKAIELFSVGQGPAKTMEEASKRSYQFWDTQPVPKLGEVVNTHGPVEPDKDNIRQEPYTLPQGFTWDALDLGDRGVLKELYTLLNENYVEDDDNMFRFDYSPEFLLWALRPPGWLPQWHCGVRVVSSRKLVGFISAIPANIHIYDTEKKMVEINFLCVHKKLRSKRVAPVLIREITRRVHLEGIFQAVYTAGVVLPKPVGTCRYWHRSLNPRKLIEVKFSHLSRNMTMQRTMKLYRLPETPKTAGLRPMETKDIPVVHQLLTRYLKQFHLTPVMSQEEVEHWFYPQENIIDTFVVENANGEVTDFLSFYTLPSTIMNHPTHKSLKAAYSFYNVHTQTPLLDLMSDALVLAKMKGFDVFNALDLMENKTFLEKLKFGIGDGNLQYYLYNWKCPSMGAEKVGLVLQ

[6] = test system: human acyl CoA synthetase; settings: cited from earlier work
[7] = test system: C. neoformans N-myristoylproteins; test: Metabolic labeling of cellular N-myristoylproteins with tritiated fatty acids; format: cell-based; settings: tritiated analog, 1 h, 30° C.
Experimental: as §3, §4

[8] = test system: C. albicans N-myristoylproteins; test: as above; format: cell-based; settings: tritiated analog, 1 h, 30° C.
Experimental: as §3, §4

Which results are given for `CCCCCCCCCCCOCC(=O)O` [O3, 3-oxatetradecanoic acid]?
fungicidal / fungistatic effect on C. neoformans (C. neoformans [1]): fungicidal; log reduction at 300 µM (C. neoformans [1]): 1; effect on growth of fungal species [2]: inhibited growth; effect on growth of C. neoformans, as determined by optical density (C. neoformans [3]): intermediate degrees of growth retardation

For `CCCCCCCCOCC(=O)O` [3-oxaundecanoic acid, reference compound], which “effect on growth of fungal species” value [2] is on record?
Its value is “broadest spectrum and highest potency”.

For `COCCCCCCCCCCCC(=O)O` [O13, 13-oxatetradecanoic acid], which “fungicidal / fungistatic effect on C. neoformans” value (C. neoformans [1]) is on record?
Its value is “no measurable effect on the growth”.

What about the HIV-1 replication (HIV-1; acutely and chronically infected human T-lymphocyte cell lines) of the same compound?
Its HIV-1 replication is “inhibits HIV-1 replication”.

And the “cellular toxicity at HIV-1 inhibiting doses” value (HIV-1; human T-lymphocyte cell lines)?
Its value is “do not cause cellular toxicity”.

And the “incorporation into the 55 kDa Gpal polypeptide” value [4]?
Its value is “not”.

What about the “labeling of the 20 kDa Arfs” value [4] of the same compound?
The value was “comparable intensity”.

What about the “substrate for human NMT” value [5] of the same compound?
Its value is “is a substrate”.

And the “substrate for human acyl CoA synthetase” value [6]?
The value was “is a substrate”.

Which “time needed to produce the decrease in viable cells” value (C. neoformans [1]) does the source give for `CCCCCCCCOCCCCC(=O)O` [O6, 6-Oxatetradecanoic acid] here?
Its value is 4 h.

And the “fungicidal / fungistatic effect on C. neoformans” value (C. neoformans [1])?
Its value is “fungicidal”.

And the log reduction at 300 µM (C. neoformans [1])?
The log reduction at 300 µM was 1.

And the “labeling of S. cerevisiae N-myristoylproteins versus [3H]myristate” value [4]?
The value was “failed to label”.

What about the “labeling of C. neoformans N-myristoylproteins versus [3H]myristate” value [7] of the same compound?
Its value is “more intense labeling of 20 and 16 kDa C. neoformans N-myristoylproteins than did myristate”.

And the “labeling of C. albicans N-myristoylproteins versus [3H]myristate” value [8]?
The value was “barely labeled”.

What about the “effect on growth of C. neoformans, as determined by optical density” value (C. neoformans [3]) of the same compound?
Its value is “intermediate degrees of growth retardation”.

— patent US5236955A, “Anti-fungal agent” (Washington University, priority 1992, dated 1993)
